# Results reported in PubChem BioAssay (NCI).
#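 Growth conditions: 96-well plates. Treatment: test compound, 48 hours, 5 concentrations. Analysis: linear interpolation between bracketing concentrations; unreached endpoints set to highest concentration. GI50 is the concentration that inhibits growth by half. TGI marks complete inhibition of growth.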
# Tests used:
# Experiment in all cases: DTP human tumour cell line panel, 48 h
# 786-0 renal = test system: 786-0 renal
# A498 renal = test system: A498 renal
# A549 NSCLC = test system: A549 NSCLC
# ACHN renal = test system: ACHN renal
# BT-549 breast = test system: BT-549 breast
# CAKI-1 renal = test system: CAKI-1 renal
# CCRF-CEM leukemia = test system: CCRF-CEM leukemia
# COLO 205 colon = test system: COLO 205 colon
# DU-145 prostate = test system: DU-145 prostate
# HCC-2998 colon = test system: HCC-2998 colon
# HCT-116 colon = test system: HCT-116 colon
# HCT-15 colon = test system: HCT-15 colon
# HL-60(TB) leukemia = test system: HL-60(TB) leukemia
# HOP-62 NSCLC = test system: HOP-62 NSCLC
# HOP-92 NSCLC = test system: HOP-92 NSCLC
# HS 578T breast = test system: HS 578T breast
# HT29 colon = test system: HT29 colon
# IGROV1 ovarian = test system: IGROV1 ovarian
# K-562 leukemia = test system: K-562 leukemia
# KM12 colon = test system: KM12 colon
# LOX IMVI melanoma = test system: LOX IMVI melanoma
# M14 melanoma = test system: M14 melanoma
# MALME-3M melanoma = test system: MALME-3M melanoma
# MCF7 breast = test system: MCF7 breast
# MDA-MB-231 breast = test system: MDA-MB-231 breast
# MDA-MB-435 = test system: MDA-MB-435
# MOLT-4 leukemia = test system: MOLT-4 leukemia
# NCI-H226 lung = test system: NCI-H226 lung
# NCI-H23 lung = test system: NCI-H23 lung
# NCI-H460 lung = test system: NCI-H460 lung
# NCI-H522 lung = test system: NCI-H522 lung
# NCI/ADR-RES ovarian = test system: NCI/ADR-RES ovarian
# OVCAR-3 ovarian = test system: OVCAR-3 ovarian
# OVCAR-4 ovarian = test system: OVCAR-4 ovarian
# OVCAR-5 ovarian = test system: OVCAR-5 ovarian
# OVCAR-8 ovarian = test system: OVCAR-8 ovarian
# PC-3 prostate = test system: PC-3 prostate
# RPMI-8226 leukemia = test system: RPMI-8226 leukemia
# RXF 393 renal = test system: RXF 393 renal
# SF-268 CNS = test system: SF-268 CNS
# SF-295 CNS = test system: SF-295 CNS
# SF-539 CNS = test system: SF-539 CNS
# SK-MEL-2 melanoma = test system: SK-MEL-2 melanoma
# SK-MEL-28 melanoma = test system: SK-MEL-28 melanoma
# SK-MEL-5 melanoma = test system: SK-MEL-5 melanoma
# SK-OV-3 ovarian = test system: SK-OV-3 ovarian
# SN12C renal = test system: SN12C renal
# SNB-19 CNS = test system: SNB-19 CNS
# SNB-75 CNS = test system: SNB-75 CNS
# SR leukemia = test system: SR leukemia
# SW-620 colon = test system: SW-620 colon
# T-47D breast = test system: T-47D breast
# TK-10 renal = test system: TK-10 renal
# U251 CNS = test system: U251 CNS
# UACC-257 melanoma = test system: UACC-257 melanoma
# UACC-62 melanoma = test system: UACC-62 melanoma
# UO-31 renal = test system: UO-31 renal
smiles,measurement,setting,value
COc1cc(-c2cc(/C=C3\C(=O)Nc4cc(Cl)ccc43)[nH]n2)cc(OC)c1OC,GI50,786-0 renal,14.4 µM
same,TGI,786-0 renal,60.1 µM
same,GI50,A498 renal,2.24 µM
same,TGI,A498 renal,8.22 µM
same,GI50,A549 NSCLC,3.23 µM
same,TGI,A549 NSCLC,15 µM
same,GI50,ACHN renal,3.48 µM
same,TGI,ACHN renal,25.6 µM
same,GI50,BT-549 breast,2.54 µM
same,TGI,BT-549 breast,7.58 µM
same,GI50,CAKI-1 renal,2.71 µM
same,TGI,CAKI-1 renal,22.5 µM
same,GI50,CCRF-CEM leukemia,2.63 µM
same,TGI,CCRF-CEM leukemia,8.43 µM
same,GI50,COLO 205 colon,1.93 µM
same,TGI,COLO 205 colon,4.36 µM
same,GI50,DU-145 prostate,3.46 µM
same,TGI,DU-145 prostate,14.5 µM
same,GI50,HCC-2998 colon,7.42 µM
same,TGI,HCC-2998 colon,> 100 µM
same,GI50,HCT-116 colon,2.74 µM
same,TGI,HCT-116 colon,10.3 µM
same,GI50,HCT-15 colon,2.59 µM
same,TGI,HCT-15 colon,7.77 µM
same,GI50,HL-60(TB) leukemia,2.45 µM
same,TGI,HL-60(TB) leukemia,7.59 µM
same,GI50,HOP-62 NSCLC,2.16 µM
same,TGI,HOP-62 NSCLC,6.46 µM
same,GI50,HOP-92 NSCLC,1.77 µM
same,TGI,HOP-92 NSCLC,8.89 µM
same,GI50,HS 578T breast,2.74 µM
same,TGI,HS 578T breast,9.31 µM
same,GI50,HT29 colon,3.46 µM
same,TGI,HT29 colon,18.6 µM
same,GI50,IGROV1 ovarian,3.45 µM
same,TGI,IGROV1 ovarian,37.2 µM
same,GI50,K-562 leukemia,2.82 µM
same,TGI,K-562 leukemia,22.6 µM
same,GI50,KM12 colon,2.27 µM
same,TGI,KM12 colon,6.93 µM
same,GI50,LOX IMVI melanoma,1.81 µM
same,TGI,LOX IMVI melanoma,4.06 µM
same,GI50,M14 melanoma,2.42 µM
same,TGI,M14 melanoma,6.99 µM
same,GI50,MALME-3M melanoma,2.71 µM
same,TGI,MALME-3M melanoma,6.96 µM
same,GI50,MCF7 breast,2.26 µM
same,TGI,MCF7 breast,6.39 µM
same,GI50,MDA-MB-231 breast,3.14 µM
same,TGI,MDA-MB-231 breast,> 100 µM
same,GI50,MDA-MB-435,1.96 µM
same,TGI,MDA-MB-435,4.18 µM
same,GI50,MOLT-4 leukemia,2.48 µM
same,TGI,MOLT-4 leukemia,6.43 µM
same,GI50,NCI-H226 lung,2.29 µM
same,TGI,NCI-H226 lung,7.94 µM
same,GI50,NCI-H23 lung,3.84 µM
same,TGI,NCI-H23 lung,18.1 µM
same,GI50,NCI-H460 lung,2.1 µM
same,TGI,NCI-H460 lung,4.9 µM
same,GI50,NCI-H522 lung,2.4 µM
same,TGI,NCI-H522 lung,6.09 µM
same,GI50,NCI/ADR-RES ovarian,2.74 µM
same,TGI,NCI/ADR-RES ovarian,7.49 µM
same,GI50,OVCAR-3 ovarian,2.74 µM
same,TGI,OVCAR-3 ovarian,15.1 µM
same,GI50,OVCAR-4 ovarian,2.91 µM
same,TGI,OVCAR-4 ovarian,15 µM
same,GI50,OVCAR-5 ovarian,4.27 µM
same,TGI,OVCAR-5 ovarian,78.1 µM
same,GI50,OVCAR-8 ovarian,2.17 µM
same,TGI,OVCAR-8 ovarian,5.32 µM
same,GI50,PC-3 prostate,2.25 µM
same,TGI,PC-3 prostate,7.83 µM
same,GI50,RPMI-8226 leukemia,2.02 µM
same,TGI,RPMI-8226 leukemia,4.92 µM
same,GI50,RXF 393 renal,5.66 µM
same,TGI,RXF 393 renal,42 µM
same,GI50,SF-268 CNS,3.36 µM
same,TGI,SF-268 CNS,29.1 µM
same,GI50,SF-295 CNS,2.84 µM
same,TGI,SF-295 CNS,8.89 µM
same,GI50,SF-539 CNS,3.92 µM
same,TGI,SF-539 CNS,21.8 µM
same,GI50,SK-MEL-2 melanoma,2.75 µM
same,TGI,SK-MEL-2 melanoma,7.5 µM
same,GI50,SK-MEL-28 melanoma,3.91 µM
same,TGI,SK-MEL-28 melanoma,26.4 µM
same,GI50,SK-MEL-5 melanoma,1.43 µM
same,TGI,SK-MEL-5 melanoma,2.79 µM
same,GI50,SK-OV-3 ovarian,3.29 µM
same,TGI,SK-OV-3 ovarian,25.1 µM
same,GI50,SN12C renal,2.68 µM
same,TGI,SN12C renal,14.2 µM
same,GI50,SNB-19 CNS,3.45 µM
same,TGI,SNB-19 CNS,> 100 µM
same,GI50,SNB-75 CNS,1.87 µM
same,TGI,SNB-75 CNS,8.17 µM
same,GI50,SR leukemia,2.33 µM
same,TGI,SR leukemia,5.66 µM
same,GI50,SW-620 colon,2.87 µM
same,TGI,SW-620 colon,14.9 µM
same,GI50,T-47D breast,2.13 µM
same,TGI,T-47D breast,6.79 µM
same,GI50,TK-10 renal,5.95 µM
same,TGI,TK-10 renal,32.3 µM
same,GI50,U251 CNS,2.84 µM
same,TGI,U251 CNS,14.8 µM
same,GI50,UACC-257 melanoma,2.43 µM
same,TGI,UACC-257 melanoma,6.13 µM
same,GI50,UACC-62 melanoma,1.76 µM
same,TGI,UACC-62 melanoma,4.3 µM
same,GI50,UO-31 renal,2.66 µM
same,TGI,UO-31 renal,15.6 µM
